In patent US7582675B2, “Flavonoid compound and process for producing the same” (Pokka Corporation, priority 2001, dated 2009):
Entries after “also recorded” stand apart in the source; their conditions may differ.

Tests used:
[1] = radical scavenging ability measurement (DPPH), antioxidative activity in a hydrophilic solvent; assay type: biochemical; conditions: samples 0.1, 1 and 10 μM, 20 minutes at room temperature, FIG. 1
Method: The antioxidative activity in a hydrophilic solvent was measured for hesperidin (HE) and the isolated 8-hydroxyhesperetin (8OH-HE). It should be noted that antioxidative activity was measured in accordance with the radical scavenging ability measurement method described in Yamaguchi, et al., Biosci. Biotechnol. Biochem., 62, 1201-1204, 1998. More specifically, an 8OH-HE sample solution and HE sample solution were first prepared having concentrations of 0.1 μM, 1 μM and 10 μM by dissolving 8OH-HE or HE in ethanol. 200 μL of each sample solution was then mixed into 800 μL of 0.1 M Tris-HCl buffer (pH 7.4). 1 ml of 500 μM DPPH (1,1-diphenyl-2-picrylhydrazyl) in ethanol was added to each mixture to prepare reaction solutions. After adequately mixing the reaction solutions, they were allowed to react for 20 minutes in a dark location at room temperature. Next, 20 μL of each reaction solution was injected into an analytical HPLC system (LC-10A) using a microsyringe to analyze the DPPH concentration. The DPPH concentration was calculated from peak area of DPPH. […] Using 200 μL of a solution of ethanol only instead of the sample solutions for the control, the peak area of DPPH was similarly measured for the control by HPLC analysis. The radical scavenging activity (%) of 8OH-HE and HE were then determined according to the calculation formula indicated in Formula 1. […]

[2] = lipid peroxidation of methyl linoleate by HPLC, antioxidative activity in a hydrophobic solvent; assay type: biochemical; conditions: 100 μM sample solutions, 40° C. for 18 hours, FIG. 2, listed as 8OH-HE
Method: The antioxidative activity in a hydrophobic solvent was measured for hesperidin (HE), isolated 8-hydroxyhesperetin (8OH-HE) and α-tocopherol (Toc), a compound that is known to have a high level of antioxidative activity. Incidentally, antioxidative activity was measured by HPLC analysis using methyl linoleate as described in Terao J., et al., Lipids, 21(4), 255-260, 1986.
More specifically, an 8OH-HE sample solution, HE sample solution and Toc sample solution having concentrations of 100 μM were first prepared by dissolving 8OH-HE, HE and Toc in ethanol. 89 mg (100 μL) aliquots of methyl linoleate were each weighed into three small test tubes having an inner diameter of 14 mm. 100 μL of each sample solution was added to the three test tubes and mixed well to prepare mixtures.
Next, each of the mixtures was dried by completely removing the solvent by placing each test tube in a vacuum desiccator in which pressure was reduced using a vacuum pump. […] The sum of the HPLC peak areas of 13-hydroperoxide and 9-hydroperoxide formed by the methyl linoleate was then determined.
Moreover, HPLC analysis was also performed using 100 μL of a solution of ethanol only instead of the sample solutions for the control. The sum of the HPLC peak areas of the control was also determined. The degree of lipid peroxidation (%) of each sample was then determined from Formula 2. […]

solubility = assay type: physicochemical
[3] = antioxidative action (general statement, no test named); conditions: general statement in the description

solubility in methanol, ethanol and dimethyl sulfoxide (DMSO) (solubility; methanol, ethanol, DMSO)	solubility in water (solubility; water)	Structure (SMILES)	antioxidative activity (radical scavenging activity) [1]	antioxidative activity (degree of lipid peroxidation) [2]	antioxidative action [3]	antioxidative action ([3]; listed as 8-Hydroxyhesperetin)	saturation concentration (solubility limit) in the medium (solubility; culture medium, varies with the amount of organic solvent added)
easily dissolves	somewhat soluble	COc1ccc(C2CC(=O)c3c(O)cc(O)c(O)c3O2)cc1O (stereo not shown) [8-hydroxyhesperetin, 3′,5,7,8-tetrahydroxy-4′-methoxyflavonone]	much higher level of antioxidative activity than HE	much higher level of antioxidative activity than HE; also recorded: antioxidative activity that was comparable to α-tocopherol	extremely high level of antioxidative action comparable to that of α-tocopherol	remarkably high antioxidative action as compared with hesperidin and hesperetin	–
–	–	COc1ccc([C@@H]2CC(=O)c3c(O)cc(O[C@@H]4O[C@H](CO[C@@H]5O[C@@H](C)[C@H](O)[C@@H](O)[C@H]5O)[C@@H](O)[C@H](O)[C@H]4O)cc3O2)cc1O [hesperidin, reference compound]	–	–	–	–	≤ 0.3 % by weight
